In patent US20230060715A1, “USE OF FXR AGONISTS FOR TREATING AN INFECTION BY HEPATITIS D VIRUS” (INSERM (INSTITUT NATIONAL DE LA SANTÉ ET DE LA RECHERCHE …, priority 2020, published 2023):
Read-outs that look alike come from different tables or passages of the source.

How the values were obtained:
[1] = test system: HDV; assay: HDV replication in HDV monoinfected dHepaRG cells (total HDV RNA, RT-qPCR); format: cell-based, Hepatitis D virus; settings: day 4 to 11 post-infection
Procedure: FIG. 6. FXRα agonists inhibit HDV replication in monoinfected dHepaRG cells.
Total RNA was prepared using NucleoSpin RNA Plus (Macherey-Nagel). After DNA digestion with TURBO DNase (Ambion), maximum 1000 ng RNA were reverse-transcribed using High-Capacity RNA-to-cDNA kit (Thermo Fisher Scientific). […] . All assays were performed in triplicate.

[2] = test system: HDV genomic RNA; assay: HDV genomic RNA in HDV monoinfected dHepaRG cells (Northern Blot); settings: day 4 to 11 post-infection
Procedure: Differentiated HepaRG cells were infected with HDV at a MOI of 25 GE/cell. From day 4 to day 11 post-infection, cells were treated with 1 or 10 μM of GW4064, 10 μM of 6-ECDCA and 1 μM of tropifexor. At day 11 post HDV infection, cells were collected and HDV genomic RNA was analyzed by Northern Blot.
To determine if FXRα-mediated inhibition of HDV was independent of HBV, the inventors analyzed the impact of FXRα agonists in HDV mono-infected dHepaRG cells.
Total RNA was extracted from infected cells using Tri Reagent® (TR118, Molecular Research Center). […] After electrotransfer to charged nylon membranes (Roche), genomic HDV RNA sequences were detected by using a strand-specific RNA probe synthesized using the Dig RNA Labeling kit (Sp6/T7) (Roche) and DIG luminescent detection kit (Roche) accordinng to the manufacturer's instruction. Quantification of signals were done with ImageLab.
As an internal control for the amount and quality of the extracted RNA, the membrane was stripped and rehybridized by using labeled oligonucleotides specific for human 18S rRNA and 28S rRNA.

[3] = test system: HDV; assay: HDV replication in HBV/HDV coinfected dHepaRG cells (intracellular HDV RNA, RT-qPCR); format: cell-based, Hepatitis D virus; settings: 10 μM, treated day 3 to 13 post-infection
Procedure: The HepaRG cell line derived from a human cellular hepato carcinoma can differentiate and regain many phenotypic traits of hepatocytes after 4 weeks of culture under defined conditions^1. HepaRG cells were cultured, differentiated, and infected by HBV and HDV as previously described^2,3.
Total RNA was prepared using NucleoSpin RNA Plus (Macherey-Nagel). After DNA digestion with TURBO DNase (Ambion), maximum 1000 ng RNA were reverse-transcribed using High-Capacity RNA-to-cDNA kit (Thermo Fisher Scientific). […] All assays were performed in triplicate.

[4] = test system: HBV; assay: Anti-HBV activity in HBV/HDV coinfected dHepaRG cells (intracellular HBV RNAs, secreted HBs and HBe antigens); format: cell-based, Hepatitis B virus; settings: 10 μM, day 13
Text: FIG. 1. FXRα agonist inhibits HDV replication in HBV-HDV coinfected dHepaRG cells. […] Cells and supernatants were harvested at day 13 for intracellular HBV and HDV RNA and secreted antigens quantification. Results are the mean+/−SD of two experiments performed with three biological replicates.
The inventors first evaluated the impact of FXRα agonists on HDV replication in in vitro coinfected dHepaRG cells. Cells were simultaneously infected with HBV and HDV. […] At day 13 post-infection, cells and supernatants were collected. The intracellular amounts of HDV and HBV RNAs were quantified as well as secreted HBe and HBs antigens.
HBV stocks (genotype D, Genbank ID U95551) were prepared using the HepAD38 cell line according to previously described protocols^7.
HBs and HBe antigens secreted in cells supernatant were quantified, after required dilutions, on Mini Vidas apparatus with Vidas HBs and Vidas HBE/HBET kits (bioMerieux, France) or Autobio kits (AutoBio, China) according to manufacturer's protocol.
Total RNA was prepared using NucleoSpin RNA Plus (Macherey-Nagel). After DNA digestion with TURBO DNase (Ambion), maximum 1000 ng RNA were reverse-transcribed using High-Capacity RNA-to-cDNA kit (Thermo Fisher Scientific). Quantitative PCR was carried out with primers HDV-F (5′-[…] -3′, SEQ ID NO: 1) and HDV-R (5′-[…] -3′, SEQ ID NO: 2) for quantification of total HDV RNA and HBV-F (5′-[…] -3′, SEQ ID NO: 3) and HBV-R (5′-[…] -3′, SEQ ID NO: 4) for quantification of pregenomic/precore HBV RNA. cDNA was analysed by quantitative PCR (qPCR) using QuantiFast SYBR® Green PCR kit (Qiagen) on LightCycler® 480 instrument (Roche) using a 45 PCR cycles. All assays were performed in triplicate. Relative quantification was determined by normalizing the expression of each gene to S9 housekeeping gene using primers S9-F (5′-[…] -3′, SEQ ID NO: 5) and S9-R (5′-[…] -3′, SEQ ID NO: 6).

[5] = test system: HDV; assay: HDV replication in HBV-infected dHepaRG super-infected with HDV (intracellular HDV RNA, RT-qPCR); format: cell-based, Hepatitis D virus; settings: 7 days treatment, superinfected dHepaRG
[6] = test system: HDV; assay: HDV replication in HBV-infected PHH super-infected with HDV (intracellular HDV RNA, RT-qPCR); format: cell-based, Hepatitis D virus; settings: 7 days treatment, superinfected PHH
[7] = test system: nascent HDV RNAs; assay: Run-On assay of nascent HDV RNAs in HBV/HDV co-infected dHepaRG; format: cell-based, Hepatitis D virus; settings: 10 μM for 4 days, 2 h labelled uridin, coinfected dHepaRG
Procedure: FIG. 8. Decrease of the levels of nascent HDV RNAs in HBV/HDV co-infected dHepaRG treated with FXRα agonists. dHepaRG were co-infected with HBV (100 vge/cell) and with HDV (10 vge/cell). […] Cells were incubated with labelled uridin or not (mock-EU) for 2 h, washed and harvested. Total intracellular HDV RNAs as well as EU-labelled HDV RNAs (nascent intracellular HDV RNAs) were isolated and quantified by RT-qPCR analyses. As a control, cells were treated with actinomycin D (10 μg/mL, ActD) 20 min before incubation with labelled uridin in order to block transcription of nascent RNAs. Results are the mean+/−SD one experiment performed with three biological replicates.
Six days post-infection, cells were treated with 10 μM of GW4064 for 4 days before Run-On experiment.
HDV-infected HepaRG cells were incubated with labelled uridin or not (mock-EU) for 2 h, washed and harvested. Total intracellular HDV RNAs as well as EU-labelled HDV RNAs (nascent intracellular HDV RNAs) were isolated using the Click-iT™ Nascent RNA Capture Kit (Thermofisher Scientific) according to the manufacturer's instruction. As a control, cells were treated with 10 μg/mL of actinomycin D 20 min before incubation with labelled uridin in order to block transcription of nascent RNAs.

[8] = in vivo; cited from earlier work
[9] = test system: HDV particles; assay: Specific infectivity of secreted HDV particles on naïve Huh7.5-NTCP cells; settings: 6 days post infection
Procedure: (A) Supernatants of infected dHepaRG cells were collected, concentrated by PEG precipitation and the levels of extracellular HDV RNAs were assessed by qRT-PCR analyses. (B-C) Naïve HuH7.5-^NTCP cells were infected with the different concentrated supernatants with (B) 500 vge/cell or (C) as indicated. Six days later, levels of intracellular HDV RNAs were assessed by RT-qPCR analyses. Results of RT-qPCR are the mean+/−SD of three independent experiments each performed with three biological replicates.
Finally, naïve Huh7.5-^NTCP cells were infected with the same concentrated supernatants but using two different HDV inoculum, 100 and 500 vge/cell, for each condition.
(§1) For analysis of HDV virion specific infectivity, supernatants from dHepaRG infected with both HBV and HDV were concentrated using 8% PEG 8000. HDV RNA was quantified by RT-qPCR in concentrates and Huh7.5^NTCP cells were infected using same viral genome equivalents (vge) of concentrated virus for each condition of treatment. Six days post infection, total cellular RNA was extracted and HDV RNA was quantified by RT-qPCR.

[10] = test system: HDV antigens (HDAg-L, HDAg-S); settings: superinfected PHH, Western Blot densitometry normalized to B-tubulin
Procedure: PHH were infected with HBV at a MOI of 100 GE/cell and 4 days later with HDV at a MOI of 10 GE/cell. […] Cells and supernatants were harvested at day 14 post HBV infection for intracellular HDV RNA quantification and lysed for protein extraction and WB analyses. Graphs represent the densitometry analyses of the respective blots and results are presented as ratios of HDAgs normalized to the levels of B-tubulin.
(§2) Cells were harvested in RIPA lysis buffer (NaCl 150 mM, Tris HCl pH=8.0 50 mM, SDS 0.1%, NP40 1%, Na Deoxycholate 0.5%) containing protease inhibitors (Protein Cocktail Inhibitors from Sigma-Aldrich, NaF 10 mM, Na Orthovanadate 10 mM). Clarified lysates were subjected to 10% SDS-PAGE and Western Blot transfer onto PVDF or nitrocellulose membranes using the TransTurbo Blot apparatus according to the manufacturer (Biorad). Primary antibodies are the HDVAg antibody (kind gift of Dr Alain Kay) and the beta-tubulin antibody (Abcam). Secondary HRP antibodies were purchased from Sigma-Aldrich. HRP signal detection was determined electronically using Ozyme—Syngene PXi Image system and parameters set strictly below the saturation point.

[11] = test system: HDV antigens (HDAg-L, HDAg-S); settings: superinfected dHepaRG, Western Blot densitometry normalized to B-tubulin
Procedure: Differentiated HepaRG cells were infected with HBV at a MOI of 100 GE/cell and 7 days later with HDV at a MOI of 10 GE/cell. […] Cells were harvested at day 17 post HBV infection and lysed for protein extraction and WB analyses. Graphs represent the densitometry analyses of the respective blots and results are presented as ratios of HDAgs normalized to the levels of B-tubulin.
as §2

[12] = test system: HDV; assay: Secretion of HDV RNA from HBV/HDV coinfected dHepaRG cells (RT-qPCR of concentrated supernatants); settings: 10 μM for 10 days
Procedure: (A) Supernatants of infected dHepaRG cells were collected, concentrated by PEG precipitation and the levels of extracellular HDV RNAs were assessed by qRT-PCR analyses. […] Results of RT-qPCR are the mean+/−SD of three independent experiments each performed with three biological replicates.
as §1

With `CC[C@H]1[C@@H](O)[C@@H]2[C@H](CC[C@]3(C)[C@@H]([C@H](C)CCC(=O)O)CC[C@@H]23)[C@@]2(C)CC[C@@H](O)C[C@@H]12` [6-ECDCA, 6-ethyl-cheno-deoxycholic acide] the “decrease of total HDV RNA” value ([1]; 10 μM) was “around 60%” and the “amount of genomic HDV RNA” value ([2]; 10 μM) was “decreased”.
With `CC(C)c1onc(-c2c(Cl)cccc2Cl)c1COc1ccc(/C=C/c2cccc(C(=O)O)c2)c(Cl)c1` [GW4064, 3-[2-[2-Chloro-4-[[3-(2,6-dichloro-phenyl)-5-(1-methylethyl)-4-isoxazolyl]methoxy]phenyl]ethenyl] benzoic acid] the “decrease of total intracellular HDV RNA” value [3] was 60%, the “anti-HBV activity on amount of intracellular HBV RNAs” value [4] was “verified” and the “anti-HBV activity on secreted HBe antigen” value [4] was “verified”. For the same compound, the “anti-HBV activity on secreted HBs antigen” value [4] was “verified”, the “decrease of total intracellular HDV RNA” value ([5]; 1 μM) was “very pronounced” and the “decrease of total intracellular HDV RNA” value ([5]; 10 μM) was “up to 60%”. The “decrease of total intracellular HDV RNA” value ([6]; 1 μM) was “very pronounced”, the “decrease of total intracellular HDV RNA” value ([6]; 10 μM) was ≤ 45% and the “decrease of total HDV RNA” value ([1]; 10 μM) was “around 60%”. The “synthesis of nascent HDV RNA” value [7] was “able to inhibit”, the bioavailability [8] was “limited” and the “amount of genomic HDV RNA” value ([2]; 10 μM) was “decreased”. For the same compound, the “intracellular HDV RNA levels with inoculum 100 versus 500 vge/cell” value ([9]; Huh7.5-NTCP infected with supernatants of treated dHepaRG) was “no significant difference”, the “decrease of intracellular HDV RNA in cells infected with supernatants of treated dHepaRG” value ([9]; producer cells treated 10 μM, Huh7.5-NTCP infected with 500 vge/cell) was “more than 95%” and the “reduction of HDAg-L (large HDV antigen) amount” value [10] was 75%. The “reduction of HDAg-S (small HDV antigen) amount” value [10] was 75%, the “reduction of HDAg-L (large HDV antigen) amount” value [11] was 75% and the “reduction of HDAg-S (small HDV antigen) amount” value [11] was 75%. For the same compound, the “decrease of secreted HDV RNA” value [12] was 65%.
With `O=C(O)c1cc(F)c2nc(N3[C@@H]4CC[C@H]3C[C@@H](OCc3c(-c5ccccc5OC(F)(F)F)noc3C3CC3)C4)sc2c1` [tropifexor, 2-[(1R,3r,5S)-3-({5-cyclopropyl-3-[2-(trifluoromethoxy)phenyl]-1,2-oxazol-4-yl}methoxy)-8-azabicyclo[3.2.1]octan-8-yl]-4-fluoro-1,3-benzothiazole-6-carboxylic acid] the “decrease of total HDV RNA” value ([1]; 1 μM) was “around 60%” and the “amount of genomic HDV RNA” value ([2]; 1 μM) was “decreased”.
